Experimental data from patent publication US10829458B2 (Araxes Pharma LLC, priority 2015, dated 2020).

Molecular target: T1, KRAS G12C 1-169, his-tagged protein, GDP-loaded (Homo sapiens, UniProt P01116, G12C)
T1 construct: KRAS G12C 1-169, his-tagged protein, GDP-loaded
Experiment: Biochemical assay: covalent modification of KRAS G12C measured by mass spectrometry (RapidFire/TOF or Q-Exactive)
Conditions: covalent binding to KRAS G12C
Method: Test compounds were prepared as 10 mM stock solutions in DMSO (Fisher cat #BP-231-100). KRAS G12C 1-169, his-tagged protein, GDP-loaded was diluted to 2 μm in buffer (20 mM Hepes, 150 mM NaCl, 1 mM MgCl2). Compounds were tested for activity as follows:
Compounds were diluted to 50× final test concentration in DMSO in 96-well storage plates. Compound stock solutions were vortexed before use and observed carefully for any sign of precipitation. Dilutions were as follow: • For 100 μM final compound concentration, compounds were diluted to 5000 μM (5 μl 10 mM compound stock+5 μl DMSO and mixed well by pipetting. • For 30 μM final compound concentration, compounds were diluted to 1500 μM (3 μl 10 mM compound stock+17p DMSO) and mixed well by pipetting. • For 10 μM final compound concentration, compounds were diluted to 500 μM (2 μl 10 mM compound stock+38p DMSO) and mixed well by pipetting. 49p of the stock protein solution was added to each well of a 96-well PCR plate (Fisher cat #1423027). 1 μl of the diluted 50× compounds were added to appropriate wells in the PCR plate using 12-channel pipettor. Reactions were mixed carefully and thoroughly by pipetting up/down with a 200·1 multi-channel pipettor. The plate was sealed well with aluminum plate seal, and stored in drawer at room temperature for 30 min, 2 hour or 24 hrs. 5·1 of 2% formic acid (Fisher cat #A117) in DI H2O was then added to each well followed by mixing with a pipette. The plate was then resealed with aluminum seal and stored on dry ice until analyzed as described below.
The above described assays were analyzed by mass spectrometry according to one of the following two procedures:
The MS instrument is set to positive polarity, 2 GHz resolution, and low mass (1700) mode and allowed to equilibrate for 30 minutes. The instrument is then calibrated, switched to acquisition mode and the appropriate method loaded.
After another 30 minute equilibration time, a blank batch (i.e., buffer) is run to ensure equipment is operating properly. The samples are thawed at 37° C. for 10 minutes, briefly centrifuged, and transfer to the bench top. Wells A1 and H12 are spiked with 1 uL 500 uM internal standard peptide, and the plates centrifuged at 2000×g for 5 minutes. The method is then run and masses of each individual well recorded.
The masses (for which integration data is desired) for each well are pasted into the platemap and exported from the analysis. Masses for the internal standards are exported as well. The data at 50 ppm is extracted for the +19 charge state, and identity of well A1 is assigned using the internal standard spike and integrated. Peak data is exported as a TOF list and the above steps are repeated individually, for the +20, 21, 22, 23, 24, and 25 charge states.
The masses and peak intensities of KRAS G12C protein species were measured using a Dionex RSLCnano system (Thermo Scientific) connected to a Q Exactive Plus mass spectrometer (Thermo Scientific).
[…] of sample was each loaded onto a Aeris™ 3.6 μm WIDEPORE C4 200 Å, LC Column 50×2.1 mm column maintained at 40° C. at a flow rate of 600 μl min^−1 with […] (0.1% formic acid in acetonitrile). The liquid chromatography conditions were 20% solvent B for 1 min, 20% to 60% solvent B for 1.5 min, 60% to 90% solvent for 0.5 min, 90% solvent B for 0.2 min, 90% to 20% solvent B for 0.2 min, and then equilibrated for 1.6 min before the following sample injection. The flow rate was maintained at 600 μl min^−1 throughout the sample analysis.
The mass spectrometer was operated in profile mode at a resolution of 17500, 5 microscans, using 50 msec max injection time and an AGC target of 1e6, and a full mass range from 800-1850 m/z was recorded. The HCD trapping gas was optimized for maximum sensitivity for intact proteins. […]

Compound | Binding % (compounds of structure (I)) | Binding % (compounds of structure (II))
C=CC(=O)N1CCN(c2nc(OCCN3CCOCC3=O)nc3c(F)c(-c4cc(O)cc5ccccc45)c(Cl)cc23)CC1 [Example I-57, 4-(2-(4-(4-acryloyl-piperazin-1-yl)-6-chloro-8-fluoro-7-(3-hydroxy-naphthalen-1-yl)quinazolin-2-yloxy)ethyl) morpholin-3-one] | +++ (+++ indicates binding activity greater than 90%) | –
CN(C)C/C=C/C(=O)N1CCN(c2nc(OCCN3CCOCC3)nc3c(F)c(-c4cc(O)cc5ccccc45)c(Cl)cc23)CC1 [Example I-65, (E)-1-(4-(6-chloro-8-fluoro-7-(3-hydroxy-naphthalen-1-yl)-2-(2-morpholino-ethoxy)quinazolin-4-yl)piperazin-1-yl)-4-(dimethyl-amino)but-2-en-1-one] | +++ (+++ indicates binding activity greater than 90%) | –
C=CC(=O)N1CCN(c2nc(OCCN3CCOCC3)nc3c(F)c(-c4ccccc4C(C)C)c(Cl)cc23)CC1 [Example I-37, 1-(4-(6-chloro-8-fluoro-7-(2-isopropylphenyl)-2-(2-morpholino-ethoxy)quinazolin-4-yl)piperazin-1-yl)prop-2-en-1-one] | +++ (+++ indicates binding activity greater than 90%) | –
C=CC(=O)N1CCN(c2nc(OCCN(CC)CC)nc3c(F)c(-c4c(C)ccc5cn[nH]c45)c(Cl)cc23)CC1 [Example I-183, 1-(4-(6-chloro-2-(2-(diethyl-amino)ethoxy)-8-fluoro-7-(6-methyl-1H-indazol-7-yl)quinazolin-4-yl)piperazin-1-yl) prop-2-en-1-one] | +++ (+++ indicates binding activity greater than 90%) | –
C=CC(=O)N1CCN(c2nc(CCN(C)C)nc3c(F)c(-c4c(C)ccc5[nH]ncc45)c(Cl)cc23)CC1 [Example I-34, 1-(4-(6-chloro-2-(2-(dimethyl-amino)ethyl)-8-fluoro-7-(5-methyl-1H-indazol-4-yl)quinazolin-4-yl)piperazin-1-yl)prop-2-en-1-one] | +++ (+++ indicates binding activity greater than 90%) | –
C=CC(=O)N1CCN(c2nc(OCCN3CCCC3=O)nc3c(F)c(-c4c(O)cccc4F)c(Cl)cc23)CC1 [Example I-16, 1-(2-(4-(4-acryloyl-piperazin-1-yl)-6-chloro-8-fluoro-7-(2-fluoro-6-hydroxyphenyl)quinazolin-2-yloxy)ethyl) pyrrolidin-2-one] | +++ (+++ indicates binding activity greater than 90%) | –
C=CC(=O)N1CCN(c2nc(OCCN3CCC(F)(F)C3)nc3c(F)c(-c4c(O)cccc4F)c(Cl)cc23)CC1 (atropisomer, axis not shown) [Example I-97, (S)-1-(4-(6-chloro-2-(2-(3,3-difluoro-pyrrolidin-1-yl)ethoxy)-8-fluoro-7-(2-fluoro-6-hydroxyphenyl)quinazolin-4-yl)piperazin-1-yl)prop-2-en-1-one] | +++ (+++ indicates binding activity greater than 90%) | –
C=CC(=O)N1CCN(c2nc(P(C)(C)=O)nc3c(F)c(-c4c(O)cccc4F)c(Cl)cc23)CC1 [Example I-205, 1-(4-(6-chloro-2-(dimethyl-phosphoryl)-8-fluoro-7-(2-fluoro-6-hydroxyphenyl)quinazolin-4-yl)piperazin-1-yl) prop-2-en-1-one] | ++ (++ indicates binding activity from 50 to 90%) | –
C=CC(=O)N1CCN(c2nc(OCCN3CCOCC3)nc3c(F)c(-c4cc(O)cc5ccccc45)c(Cl)cc23)CC1 (atropisomer, axis not shown) [Example I-51, (S)-1-(4-(6-chloro-8-fluoro-7-(3-hydroxy-naphthalen-1-yl)-2-(2-morpholino-ethoxy)quinazolin-4-yl)piperazin-1-yl)prop-2-en-1-one] | +++ (+++ indicates binding activity greater than 90%) | –
C=CC(=O)N1CCN(c2nc(OCCS(C)(=O)=O)nc3c(F)c(-c4c(O)cccc4F)c(Cl)cc23)CC1 [Example I-113, 1-(4-(6-chloro-8-fluoro-7-(2-fluoro-6-hydroxyphenyl)-2-(2-(methyl-sulfonyl)ethoxy)quinazolin-4-yl)piperazin-1-yl) prop-2-en-1-one] | +++ (+++ indicates binding activity greater than 90%) | –
C=CC(=O)N1CCN(c2nc(NC3CCS(=O)(=O)CC3)nc3c(F)c(-c4c(O)cccc4F)c(Cl)cc23)CC1 [Example I-66, 1-(4-(6-chloro-8-fluoro-7-(2-fluoro-6-hydroxyphenyl)-2-(tetrahydro-2H-dioxothio-pyran-4-ylamino)quinazolin-4-yl)piperazin-1-yl) prop-2-en-1-one] | +++ (+++ indicates binding activity greater than 90%) | –
C=CC(=O)N1CCN(c2nc(OCCNP(C)(C)=O)nc3c(F)c(-c4c(O)cccc4F)c(Cl)cc23)CC1 [Example I-207, N-(2-(4-(4-acryloyl-piperazin-1-yl)-6-chloro-8-fluoro-7-(2-fluoro-6-hydroxyphenyl)quinazolin-2-yloxy)ethyl)-P,P-dimethyl-phosphinic amide] | ++ (++ indicates binding activity from 50 to 90%) | –
C=CC(=O)Nc1cccc(-c2ncnc3c(F)c(-c4c(O)cccc4F)c(Cl)cc23)c1 [II-11, N-(3-(6-chloro-8-fluoro-7-(2-fluoro-6-hydroxyphenyl)quinazolin-4-yl)phenyl)acrylamide] | – | + (+ indicates binding activity up to 50%)
C=CC(=O)N1CCN(c2nc(NC3CCN(CC(F)F)CC3)nc3c(F)c(-c4c(C)ccc5[nH]ncc45)c(Cl)cc23)CC1 [Example I-167, 1-(4-(6-chloro-2-((1-(2,2-difluoroethyl)piperidin-4-yl)amino)-8-fluoro-7-(5-methyl-1H-indazol-4-yl)quinazolin-4-yl)piperazin-1-yl) prop-2-en-1-one] | ++ (++ indicates binding activity from 50 to 90%) | –
C=CC(=O)N1CCN(c2nc(NC3CCN(c4ncccn4)CC3)nc3c(F)c(-c4c(O)cccc4F)c(Cl)cc23)CC1 [Example I-190, 1-(4-(6-chloro-8-fluoro-7-(2-fluoro-6-hydroxyphenyl)-2-((1-(pyrimidin-2-yl)piperidin-4-yl)amino)quinazolin-4-yl)piperazin-1-yl) prop-2-en-1-one] | + (+ indicates binding activity up to 50%) | –
C=CC(=O)N1CCC(Nc2ncnc3c(F)c(-c4c(O)cccc4F)c(Cl)cc23)C1 (stereo not drawn) [II-9, 1-(3-((6-chloro-8-fluoro-7-(2-fluoro-6-hydroxyphenyl)quinazolin-4-yl)amino)pyrrolidin-1-yl)prop-2-en-1-one] | – | + (+ indicates binding activity up to 50%)
C=CC(=O)N1CCN(c2nc(NC3CCN(C(C)C)CC3)nc3c(F)c(-c4c(O)cccc4F)c(Cl)cc23)CC1 [Example I-84, 1-(4-(6-chloro-8-fluoro-7-(2-fluoro-6-hydroxyphenyl)-2-(1-isopropyl-piperidin-4-ylamino)quinazolin-4-yl)piperazin-1-yl)prop-2-en-1-one] | +++ (+++ indicates binding activity greater than 90%) | –
C=CC(=O)N1CCN(c2nc(OCc3ccccn3)nc3c(F)c(-c4c(O)cccc4F)c(Cl)cc23)CC1 [Example I-112, 1-(4-(6-chloro-8-fluoro-7-(2-fluoro-6-hydroxyphenyl)-2-(pyridin-2-ylmethoxy)quinazolin-4-yl)piperazin-1-yl) prop-2-en-1-one] | +++ (+++ indicates binding activity greater than 90%) | –
